Assay results from publication PMC11172662, “Anticancer Effect of Hemin through ANO1 Inhibition in Human Prostate Cancer Cells” (International Journal of Molecular Sciences, 2024).

Experiments:
ANO2 = target: T1, ANO2 (Homo sapiens, UniProt Q9NQ90); assay: YFP fluorescence quenching assay in FRT cells expressing human ANO2; type: cell-based
T1 sequence (Q9NQ90 1-998): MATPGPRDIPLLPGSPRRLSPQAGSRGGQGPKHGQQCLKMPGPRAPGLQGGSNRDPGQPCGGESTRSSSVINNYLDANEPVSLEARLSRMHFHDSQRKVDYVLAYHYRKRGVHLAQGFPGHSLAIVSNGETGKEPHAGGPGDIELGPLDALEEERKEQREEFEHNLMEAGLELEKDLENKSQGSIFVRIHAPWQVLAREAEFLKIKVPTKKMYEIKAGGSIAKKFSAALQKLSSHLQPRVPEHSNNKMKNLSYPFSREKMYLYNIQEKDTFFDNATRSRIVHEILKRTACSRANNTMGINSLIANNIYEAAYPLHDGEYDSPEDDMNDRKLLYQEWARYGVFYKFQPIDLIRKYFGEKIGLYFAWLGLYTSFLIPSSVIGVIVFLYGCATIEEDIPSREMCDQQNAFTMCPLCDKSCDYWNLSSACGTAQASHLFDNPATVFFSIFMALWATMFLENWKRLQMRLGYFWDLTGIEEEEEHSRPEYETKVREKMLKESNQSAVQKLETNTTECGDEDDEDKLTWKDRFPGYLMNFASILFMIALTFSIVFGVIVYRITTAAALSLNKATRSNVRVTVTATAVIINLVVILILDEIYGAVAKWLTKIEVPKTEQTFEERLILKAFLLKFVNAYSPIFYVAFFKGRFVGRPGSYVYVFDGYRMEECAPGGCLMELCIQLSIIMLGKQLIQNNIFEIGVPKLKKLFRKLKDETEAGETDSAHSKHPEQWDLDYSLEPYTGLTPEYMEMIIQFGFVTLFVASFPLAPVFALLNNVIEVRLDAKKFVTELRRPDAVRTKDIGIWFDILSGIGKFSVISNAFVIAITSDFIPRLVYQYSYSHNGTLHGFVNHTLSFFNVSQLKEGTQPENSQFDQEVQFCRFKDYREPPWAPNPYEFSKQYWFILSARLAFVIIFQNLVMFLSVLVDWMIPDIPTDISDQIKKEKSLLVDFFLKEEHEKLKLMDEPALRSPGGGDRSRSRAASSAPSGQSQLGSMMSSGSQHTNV

[1] = target: T2, ANO1 (anoctamin1, TMEM16A) (Homo sapiens, UniProt Q5XXA6); assay: YFP fluorescence quenching assay in FRT cells expressing human ANO1; confirmed by short-circuit current (PC-3 cells IC50 […]); type: cell-based
T2 sequence (Q5XXA6 1-986): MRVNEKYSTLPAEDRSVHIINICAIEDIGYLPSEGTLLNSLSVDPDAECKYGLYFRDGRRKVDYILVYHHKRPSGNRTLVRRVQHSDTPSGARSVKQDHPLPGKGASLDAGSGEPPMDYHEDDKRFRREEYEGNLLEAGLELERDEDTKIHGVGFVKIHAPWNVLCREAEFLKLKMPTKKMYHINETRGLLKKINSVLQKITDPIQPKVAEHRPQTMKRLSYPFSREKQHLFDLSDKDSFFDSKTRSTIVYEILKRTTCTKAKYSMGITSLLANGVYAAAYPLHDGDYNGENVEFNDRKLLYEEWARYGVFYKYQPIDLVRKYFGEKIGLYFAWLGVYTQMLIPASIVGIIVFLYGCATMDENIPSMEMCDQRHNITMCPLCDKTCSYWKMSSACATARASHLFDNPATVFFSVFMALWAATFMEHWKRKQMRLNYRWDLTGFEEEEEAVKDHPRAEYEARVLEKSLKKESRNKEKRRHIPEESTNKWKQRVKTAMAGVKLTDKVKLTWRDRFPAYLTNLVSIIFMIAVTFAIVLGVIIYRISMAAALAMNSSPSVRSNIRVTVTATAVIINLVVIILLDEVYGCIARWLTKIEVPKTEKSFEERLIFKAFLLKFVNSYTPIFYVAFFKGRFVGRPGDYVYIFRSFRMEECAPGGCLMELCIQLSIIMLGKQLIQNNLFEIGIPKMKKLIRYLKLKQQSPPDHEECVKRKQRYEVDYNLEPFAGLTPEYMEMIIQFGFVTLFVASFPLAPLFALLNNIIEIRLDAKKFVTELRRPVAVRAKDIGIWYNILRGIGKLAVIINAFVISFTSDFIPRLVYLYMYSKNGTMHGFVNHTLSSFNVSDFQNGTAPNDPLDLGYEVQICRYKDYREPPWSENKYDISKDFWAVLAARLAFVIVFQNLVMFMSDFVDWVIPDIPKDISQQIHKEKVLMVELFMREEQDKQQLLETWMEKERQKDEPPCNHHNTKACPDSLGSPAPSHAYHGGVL

Work on `C=CC1=C(C)C2=Cc3c(C=C)c(C)c4[n]3[Fe]([Cl])[n]3c(c(C)c(CCC(=O)O)c3=CC3=NC(=C4)C(C)=C3CCC(=O)O)=CC1=N2` [hemin] yielded an IC50 (ANO2) of 4090 nM and an IC50 [1] of 510 nM.
